Laboratory results: patent US20250275953A1, “VODOBATINIB FOR REDUCING PROGRESSION OF PARKINSON'S DISEASE” (Sun Pharma Advanced Research Company Ltd., priority 2022, published 2025)
Like-named read-outs stand apart in the source and are kept apart here.

Legend:
[1] = target: Abl (Homo sapiens, UniProt P00519); assay: Biochemical kinase assay, native Abl (radiometric substrate phosphorylation)
Description: (§1) Conventional biochemical kinase assays, using radioactivity and fluorescence as readouts, were used to derive half maximal-inhibitory concentrations (IC50) values.
Inhibition of c-Abl kinase activity by vodobatinib was determined in a radiometric detection assay using γ-33P-labeled-ATP. […] (Abl substrate peptide), 10 mM magnesium acetate, and [γ-33P-ATP]. The reaction was initiated by addition of an MgATP mix. Following incubation for 40 minutes at room temperature, the reaction was stopped by addition of 3% phosphoric acid solution. The radiolabeled substrate was separated onto a P30 filtermat, which was washed with 75 mM phosphoric acid and methanol, and dried, following which radioactivity incorporated into the substrate was determined by scintillation counting. Similar assessments were also carried out using recombinant murine c-Abl enzyme using the identical assay format as described above.

[2] = target: Arg (Homo sapiens, UniProt P42684); assay: Biochemical kinase assay
Text: as §1

[3] = target: c-Abl (Homo sapiens, UniProt P00519); assay: Competition binding KINOMEscan assay (DiscoverX); conditions: read-out: Kd, Binding Assay hAbl
Description: The binding affinity of vodobatinib to c-Abl was determined in a competition binding KINOMETM scan assay. […] Liganded beads were blocked with excess biotin, and washed with blocking buffer (SEA BLOCK Pierce), with 1% BSA, 0.05% Tween 20, 1 mM DTT) to remove unbound ligand and reduce non-specific binding. […] The kinase concentration in the eluates was measured by qPCR. The kinase concentrations in test compound treated wells were compared with that in the non-treated wells across the concentration range to generate the Kd values.

[4] = CSF pharmacokinetics on Day 7, healthy volunteers; assay type: in vivo, human; conditions: for CSF AUC0-24 AM / CSF AUC0-24 GM / CSF AUC0-24 Median / CSF Cmax AM / CSF Cmax GM / CSF Cmax Median / Tmax: Day 7, CSF, healthy volunteers; for Cmax, CSF/IC50: IC50 0.9 nM; for Tmax: male, human, CSF, oral
Description: CSF Assessment: On the morning of Day 7, local anesthetic (e.g., lidocaine 2% with epinephrine) was administered subcutaneously at the site of lumbar puncture. An indwelling intrathecal catheter was inserted at the lumbar region (L3-L5) by a trained and experienced anesthesiologist (i.e., using an epidural tray, 17G or 20/22G Tuohy needle and catheter over needle system). A CSF sample was collected for safety labs (i.e., cell count, glucose, protein). Serial CSF samples were then collected through the spinal catheter and tubing connected to a fractional collection system (i.e., peristaltic pump). The CSF samples (8 mL) were collected at a flow rate of 0.5 mL/min over a 16-minute period at pre-dose, and at 0.5 h, 1.0 h, 1.5 h, 2 h, 2.5 h, 3 h, 4 h, 6 h, 8 h, 12 h and 24 h post-dose. The first 2 mL of CSF was discarded, and the 6 mL remainder was used for the PK study.
The plasma and CSF samples were analyzed, by validated LC/MS-MS methods. PK analysis was conducted based on PK/PP Population: Cmax, AUC0-t, AUC0-24, AUC0-∞, Tmax, Cavg, CL/F, Cmin, t1/2, Kel, Vd (V/F; Vd/F), and Vss/F. Model-independent plasma PK parameters (Cmax, Tmax, t1/2, AUC0-t, AUC0-24, AUC0-∞, Cavg, CL/F, Vss/F, Vd/F), after the first dose (Day 1) and last dose (Day 7), Cmin on Days 2-7) was listed by subject and summarized by study cohort. In addition to the descriptive statistics listed above, geometric means was reported for the pivotal PK endpoints (CL/F, Vss/F, Vd/F, Cmin, Cavg, AUC0-t, AUC0-24, AUC0-∞, and Cmax). For CSF, PK parameters (Cmax, Tmax, t1/2, AUC0-t, AUC0-24, Cmin, Cavg, CL/F, Vss/F) was listed by subject and summarized by cohort. Ratios of CSF: plasma concentration at each time point was listed by subject and summarized by study cohort.
Forty-one healthy adult male volunteers aged 18 to 45 with body mass indexes (BMI)≥18 to ≤30 Kg/m^2 and total body weight >50 kg (110 lb) were screened in order to enroll 19 subjects with an average age of 34.2 years (range 21.5-45.6 years) into this study Six participants were randomly assigned to the 48 and 192 mg cohorts, and seven participants were assigned to the 384 mg cohort. After an overnight fast, participants received once daily doses of vodobatinib as capsules for 7 days. Serial PK blood samples to measure vodobatinib plasma concentrations were collected at pre-dose and at 0.25, 0.5, 1, 1.5, 2, 2.5, 3, 4, 6, 8, 12, 16 and 24 h post-dose after the first dose on Day 1 and the last dose on day 7. Additional PK samples prior to the morning doses were taken on Days 3-6. On the morning of Day 7, prior to dosing, an indwelling intrathecal catheter was inserted in the lumbar region (L3-L5). Serial CSF samples were collected through the catheter connected via peristaltic pump to a fraction collector. At each designated CSF collection time point, 8 mL of CSF was collected at a flow rate of 0.5 mL/min over a 16-min period at pre-dose, and 0.5, 1.0, 1.5, 2, 2.5, 3, 4, 6, 8, 12 and 24 h post-dose. The first 2 mL of CSF was discarded, and the remaining 6 mL was used for the vodobatinib assay. The occurrence of treatment-emergent adverse events (TEAEs) and serious AEs (SAEs) reported through the completion of study were collected. Clinical laboratory parameters, vital signs and physical examination data and electrocardiogram (ECG) were collected and evaluated relative to baseline values.

[5] = 48 mg, Day 7, Healthy Volunteers
[6] = 192 mg, Day 7, Healthy Volunteers
[7] = 384 mg, Day 7, Healthy Volunteers

Chain of Abl (P00519 whole entry): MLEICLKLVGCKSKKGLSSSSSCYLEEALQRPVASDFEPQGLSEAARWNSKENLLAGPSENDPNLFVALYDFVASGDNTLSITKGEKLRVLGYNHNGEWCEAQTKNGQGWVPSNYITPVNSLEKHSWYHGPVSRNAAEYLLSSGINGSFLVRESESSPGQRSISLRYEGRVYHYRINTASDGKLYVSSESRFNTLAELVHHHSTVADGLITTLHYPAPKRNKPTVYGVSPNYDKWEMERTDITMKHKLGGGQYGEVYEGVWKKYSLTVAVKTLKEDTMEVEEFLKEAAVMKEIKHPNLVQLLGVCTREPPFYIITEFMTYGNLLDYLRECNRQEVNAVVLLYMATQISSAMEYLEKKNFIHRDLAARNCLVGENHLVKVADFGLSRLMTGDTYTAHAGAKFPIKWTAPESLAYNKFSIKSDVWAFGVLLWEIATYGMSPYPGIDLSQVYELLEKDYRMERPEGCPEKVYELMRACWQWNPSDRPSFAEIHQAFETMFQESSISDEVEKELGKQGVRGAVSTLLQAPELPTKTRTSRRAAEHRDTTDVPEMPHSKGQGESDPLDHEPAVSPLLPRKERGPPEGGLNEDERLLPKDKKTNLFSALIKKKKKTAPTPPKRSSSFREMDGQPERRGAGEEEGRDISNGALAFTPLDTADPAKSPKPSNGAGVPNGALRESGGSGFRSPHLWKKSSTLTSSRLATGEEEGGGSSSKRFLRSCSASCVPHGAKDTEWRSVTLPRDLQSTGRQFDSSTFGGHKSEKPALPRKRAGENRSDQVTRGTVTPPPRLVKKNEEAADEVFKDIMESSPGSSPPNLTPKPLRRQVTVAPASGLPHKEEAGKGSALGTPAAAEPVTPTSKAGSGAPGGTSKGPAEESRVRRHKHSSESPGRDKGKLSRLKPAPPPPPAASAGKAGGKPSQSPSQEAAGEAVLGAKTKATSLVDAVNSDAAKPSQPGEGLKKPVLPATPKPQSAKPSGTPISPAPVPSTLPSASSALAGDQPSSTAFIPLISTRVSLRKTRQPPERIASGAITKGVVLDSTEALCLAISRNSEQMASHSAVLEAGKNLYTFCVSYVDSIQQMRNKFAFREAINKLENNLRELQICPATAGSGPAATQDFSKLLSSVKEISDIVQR
Chain of c-Abl (P00519 whole entry): as above
Chain of Arg (P42684 whole entry): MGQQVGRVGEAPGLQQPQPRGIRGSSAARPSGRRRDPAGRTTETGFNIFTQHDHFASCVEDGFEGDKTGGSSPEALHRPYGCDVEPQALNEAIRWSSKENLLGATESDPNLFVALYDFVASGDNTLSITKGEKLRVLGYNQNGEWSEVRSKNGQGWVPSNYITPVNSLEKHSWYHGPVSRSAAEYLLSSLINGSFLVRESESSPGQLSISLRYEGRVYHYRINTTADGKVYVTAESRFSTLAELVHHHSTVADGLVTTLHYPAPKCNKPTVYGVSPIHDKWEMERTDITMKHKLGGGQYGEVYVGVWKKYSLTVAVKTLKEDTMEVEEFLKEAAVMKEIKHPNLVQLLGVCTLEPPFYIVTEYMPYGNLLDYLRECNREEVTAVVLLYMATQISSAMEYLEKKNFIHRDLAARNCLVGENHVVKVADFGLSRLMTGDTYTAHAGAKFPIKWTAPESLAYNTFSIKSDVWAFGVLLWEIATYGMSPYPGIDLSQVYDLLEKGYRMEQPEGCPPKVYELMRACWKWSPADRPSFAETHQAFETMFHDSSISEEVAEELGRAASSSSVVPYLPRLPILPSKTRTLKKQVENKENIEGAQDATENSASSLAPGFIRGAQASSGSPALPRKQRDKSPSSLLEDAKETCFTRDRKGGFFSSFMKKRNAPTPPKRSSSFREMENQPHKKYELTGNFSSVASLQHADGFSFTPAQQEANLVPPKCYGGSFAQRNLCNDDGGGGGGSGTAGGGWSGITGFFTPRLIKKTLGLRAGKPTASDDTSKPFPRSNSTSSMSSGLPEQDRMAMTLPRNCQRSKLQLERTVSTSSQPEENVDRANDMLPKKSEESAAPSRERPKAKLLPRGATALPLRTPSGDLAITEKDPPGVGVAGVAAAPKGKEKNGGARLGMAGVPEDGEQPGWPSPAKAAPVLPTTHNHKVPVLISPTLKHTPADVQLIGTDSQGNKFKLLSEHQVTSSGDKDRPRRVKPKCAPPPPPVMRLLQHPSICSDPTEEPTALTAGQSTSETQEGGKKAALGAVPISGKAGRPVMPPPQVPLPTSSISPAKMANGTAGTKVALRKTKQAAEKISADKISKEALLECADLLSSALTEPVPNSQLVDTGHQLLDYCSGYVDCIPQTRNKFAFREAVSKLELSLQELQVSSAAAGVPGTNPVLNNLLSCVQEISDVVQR

## Cc1ccc(C(=O)NNC(=O)c2c(C)cccc2Cl)cc1C#Cc1cnc2ccccc2c1 [N′-(2-chloro-6-methylbenzoyl)-4-methyl-3-[2-(3-quinolyl)ethynyl]-benzohydrazide]
[1]; 0.9 nM vs 20 nM
  times more potent than nilotinib: 20
[1]; Table 1
  IC50: 0.9 nM
[2]
  IC50: 0.8 nM
[3]
  Kd: 0.98 nM
[4]; 48 mg, Day 7
  CSF AUC0-24: 18.3 nM·h
[4]; 48 mg
  CSF AUC0-24 AM: 10.0 ng·h/mL
  CSF AUC0-24 GM: 8.9 ng·h/mL
  CSF AUC0-24 Median: 10.1 ng·h/mL
  CSF Cmax AM: 0.8 ng/mL
  CSF Cmax GM: 0.7 ng/mL
  CSF Cmax Median: 0.8 ng/mL
[4]; [5]
  CSF AUC0-24: 10.0 ng·h/mL
  Cavg, CSF: (0.9 nM)
  Cmax, CSF: (1.8 nM)
  Cmax, CSF/IC50: 2.0
[4]; 48 mg, Day 7, Healthy Volunteers, Table 11A
  Cmax, CSF: 0.8 ng/mL
[4]; 48 mg, Day 7, Healthy Volunteers, estimated as AUC(0-24)/24
  Cavg, CSF: 0.42 ng/mL
[4]; 48 mg, healthy subjects
  CSF concentrations at 2-3 h: 0.5 to 0.7 ng/mL
[4]; 192 mg, Day 7
  CSF AUC0-24: 130.4 nM·h
[4]; 192 mg
  CSF AUC0-24 AM: 74.5 ng·h/mL
  CSF AUC0-24 GM: 59.2 ng·h/mL
  CSF AUC0-24 Median: 64.5 ng·h/mL
  CSF Cmax AM: 5.2 ng/mL
  CSF Cmax GM: 4.6 ng/mL
  CSF Cmax Median: 5.2 ng/mL
[4]; [6]
  CSF AUC0-24: 74.5 ng·h/mL
  Cavg, CSF: (6.8 nM)
  Cmax, CSF: (11.5 nM)
  Cmax, CSF/IC50: 13
[4]; 192 mg, Day 7, Healthy Volunteers, Table 11A
  Cmax, CSF: 5.2 ng/mL
[4]; 192 mg, Day 7, Healthy Volunteers, estimated as AUC(0-24)/24
  Cavg, CSF: 3.3 ng/mL
[4]; 384 mg, Day 7
  CSF AUC0-24: 120.1 nM·h
[4]; 384 mg
  CSF AUC0-24 AM: 58.7 ng·h/mL
  CSF AUC0-24 GM: 54.5 ng·h/mL
  CSF AUC0-24 Median: 60.0 ng·h/mL
  CSF Cmax AM: 5.5 ng/mL
  CSF Cmax GM: 5.4 ng/mL
  CSF Cmax Median: 5.1 ng/mL
[4]; [7]
  CSF AUC0-24: 58.7 ng·h/mL
  Cavg, CSF: (5.3 nM)
  Cmax, CSF: (12.3 nM)
  Cmax, CSF/IC50: 14
[4]; 384 mg, Day 7, Healthy Volunteers, Table 11A
  Cmax, CSF: 5.5 ng/mL
[4]; 384 mg, Day 7, Healthy Volunteers, estimated as AUC(0-24)/24
  Cavg, CSF: 2.4 ng/mL
[4]; Day 7, 3 dose cohorts
  quantifiable CSF concentrations: observed in all subjects
[4]; 48 mg, read-out: CSF Tmax Median
  Tmax: 3 h
[4]; 48 mg, read-out: CSF Tmax Min, Max
  Tmax: 3 to 6.02 h
[4]; 192 mg, read-out: CSF Tmax Median
  Tmax: 6 h
[4]; 192 mg, read-out: CSF Tmax Min, Max
  Tmax: 2.03 to 6.01 h
[4]; 384 mg, read-out: CSF Tmax Median
  Tmax: 5 h
[4]; 384 mg, read-out: CSF Tmax Min, Max
  Tmax: 2.5 to 8.01 h
[4]; therapeutically effective amount
  ratio of concentration in CSF to IC50 of c-Abl inhibition: not less than 1
